Reference: ChEMBL document CHEMBL5465560, “Selectivity Literature for EUbOPEN Chemogenomic Library” (2024)
One block for each compound: values may come before it.

Experiments:
[1] = biological target: AP2-associated protein kinase 1 (Homo sapiens, UniProt Q2M2I8); test: Selectivity interaction (Kinase panel (enzymatic assay, literature)) EUB0001492b AAK1
[2] = biological target: T1, Alpha-1A adrenergic receptor (Homo sapiens) (UniProt P35348); test: Selectivity interaction (GPCR panel (PDSP screen)) EUB0001492b ADRA1A; details: at 10 µM
T1 sequence (whole entry): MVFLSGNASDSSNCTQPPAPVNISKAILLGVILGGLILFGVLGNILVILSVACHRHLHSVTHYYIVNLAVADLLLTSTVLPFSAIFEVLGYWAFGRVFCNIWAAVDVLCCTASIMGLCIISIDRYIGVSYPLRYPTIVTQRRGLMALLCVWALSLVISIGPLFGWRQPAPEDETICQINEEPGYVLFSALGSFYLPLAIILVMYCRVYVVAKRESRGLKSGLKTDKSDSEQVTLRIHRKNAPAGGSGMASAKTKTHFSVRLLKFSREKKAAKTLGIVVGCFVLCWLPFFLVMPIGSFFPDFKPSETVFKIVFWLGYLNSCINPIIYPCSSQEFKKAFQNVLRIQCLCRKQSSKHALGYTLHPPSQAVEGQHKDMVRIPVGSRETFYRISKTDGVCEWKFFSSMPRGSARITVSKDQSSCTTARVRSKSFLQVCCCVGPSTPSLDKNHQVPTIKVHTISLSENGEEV

[3] = biological target: Alpha-1D adrenergic receptor (Homo sapiens) (UniProt P25100); test: Selectivity interaction (GPCR panel (PDSP screen)) EUB0001492b ADRA1D; details: at 10 µM
[4] = biological target: T2, Alpha-2C adrenergic receptor (Homo sapiens) (UniProt P18825); test: Selectivity interaction (GPCR panel (PDSP screen)) EUB0001492b ADRA2C; details: at 10 µM
T2 sequence (whole entry): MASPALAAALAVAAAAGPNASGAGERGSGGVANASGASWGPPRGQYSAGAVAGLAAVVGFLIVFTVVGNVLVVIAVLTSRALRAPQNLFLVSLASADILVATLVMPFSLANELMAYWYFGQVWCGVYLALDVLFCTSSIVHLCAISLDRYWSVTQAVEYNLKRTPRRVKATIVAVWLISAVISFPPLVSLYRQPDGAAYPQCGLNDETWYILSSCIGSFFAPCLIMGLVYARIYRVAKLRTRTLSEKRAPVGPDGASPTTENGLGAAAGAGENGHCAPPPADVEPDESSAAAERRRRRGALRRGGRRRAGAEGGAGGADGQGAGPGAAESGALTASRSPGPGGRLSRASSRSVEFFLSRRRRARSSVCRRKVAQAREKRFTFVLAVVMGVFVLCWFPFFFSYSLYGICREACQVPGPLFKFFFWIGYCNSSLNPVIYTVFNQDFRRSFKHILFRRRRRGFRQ

[5] = biological target: Beta-3 adrenergic receptor (Homo sapiens) (UniProt P13945); test: Selectivity interaction (GPCR panel (PDSP screen)) EUB0001492b ADRB3; details: at 10 µM
[6] = biological target: Muscarinic acetylcholine receptor M3 (Homo sapiens, UniProt P20309); test: Selectivity interaction (GPCR panel (PDSP screen)) EUB0001492b CHRM3; details: at 10 µM
D(1A) dopamine receptor = D(1A) dopamine receptor (Homo sapiens, UniProt P21728); test: Selectivity interaction (GPCR panel (PDSP screen)) EUB0001492b DRD1; details: at 10 µM
D(2) dopamine receptor = D(2) dopamine receptor (Homo sapiens, UniProt P14416); test: Selectivity interaction (GPCR panel (PDSP screen)) EUB0001492b DRD2; details: at 10 µM
D(3) dopamine receptor = D(3) dopamine receptor (Homo sapiens, UniProt P35462); test: Selectivity interaction (GPCR panel (PDSP screen)) EUB0001492b DRD3; details: at 10 µM
[7] = biological target: D(4) dopamine receptor (Homo sapiens) (UniProt P21917); test: Selectivity interaction (GPCR panel (PDSP screen)) EUB0001492b DRD4; details: at 10 µM
[8] = biological target: T3, 4-aminobutyrate aminotransferase, mitochondrial (Homo sapiens, UniProt P80404); test: (§1) Selectivity interaction (GPCR panel (PDSP screen)) EUB0001492b ABAT
[9] = biological target: T3, 4-aminobutyrate aminotransferase, mitochondrial; test: as §1; details: at 10 µM
[10] = biological target: T4, Gamma-aminobutyric acid receptor subunit alpha-1 (Homo sapiens) (UniProt P14867); test: Selectivity interaction (GPCR panel (PDSP screen)) EUB0001492b GABRA1; details: at 10 µM
T4 sequence (whole entry): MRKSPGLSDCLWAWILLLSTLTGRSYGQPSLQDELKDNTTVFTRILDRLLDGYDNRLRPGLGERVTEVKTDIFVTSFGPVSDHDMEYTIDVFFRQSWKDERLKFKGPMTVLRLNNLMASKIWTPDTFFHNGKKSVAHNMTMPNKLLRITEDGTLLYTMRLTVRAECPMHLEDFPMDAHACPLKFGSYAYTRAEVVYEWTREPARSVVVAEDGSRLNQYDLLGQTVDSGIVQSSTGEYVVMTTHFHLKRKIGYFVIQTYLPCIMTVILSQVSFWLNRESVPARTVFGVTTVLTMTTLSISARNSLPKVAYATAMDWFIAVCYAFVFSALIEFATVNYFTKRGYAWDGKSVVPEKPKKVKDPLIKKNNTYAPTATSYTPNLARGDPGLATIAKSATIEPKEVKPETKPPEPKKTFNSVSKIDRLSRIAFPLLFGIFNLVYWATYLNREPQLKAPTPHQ

[11] = biological target: Cyclin-G-associated kinase (Homo sapiens, UniProt O14976); test: Selectivity interaction (Kinase panel (enzymatic assay, literature)) EUB0001492b GAK
[12] = biological target: T5, 5-hydroxytryptamine receptor 1A (Homo sapiens) (UniProt P08908); test: Selectivity interaction (GPCR panel (PDSP screen)) EUB0001492b HTR1A; details: at 10 µM
T5 sequence (whole entry): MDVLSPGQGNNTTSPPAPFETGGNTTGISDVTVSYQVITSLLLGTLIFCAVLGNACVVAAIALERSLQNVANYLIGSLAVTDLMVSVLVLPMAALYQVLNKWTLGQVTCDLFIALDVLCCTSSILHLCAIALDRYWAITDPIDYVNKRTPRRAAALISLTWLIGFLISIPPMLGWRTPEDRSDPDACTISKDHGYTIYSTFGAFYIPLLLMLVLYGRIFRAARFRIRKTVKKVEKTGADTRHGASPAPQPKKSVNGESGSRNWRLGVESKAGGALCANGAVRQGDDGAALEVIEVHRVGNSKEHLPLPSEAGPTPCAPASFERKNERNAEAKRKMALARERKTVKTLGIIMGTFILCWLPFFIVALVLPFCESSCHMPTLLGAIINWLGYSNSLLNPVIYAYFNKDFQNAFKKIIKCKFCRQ

[13] = biological target: 5-hydroxytryptamine receptor 1D (Homo sapiens) (UniProt P28221); test: Selectivity interaction (GPCR panel (PDSP screen)) EUB0001492b HTR1D; details: at 10 µM
[14] = biological target: 5-hydroxytryptamine receptor 7 (Homo sapiens) (UniProt P34969); test: Selectivity interaction (GPCR panel (PDSP screen)) EUB0001492b HTR7; details: at 10 µM
[15] = biological target: Interleukin-1 receptor-associated kinase 3 (Homo sapiens, UniProt Q9Y616); test: Selectivity interaction (NanoBRET assay (in HEK293T cells)) EUB0001492b IRAK3; type: cell-based, HEK-293T
[16] = biological target: T6, Mitotic checkpoint serine/threonine-protein kinase BUB1 (Homo sapiens, UniProt O43683); test: Selectivity interaction (Kinase panel (literature)) EUB0001549a BUB1
[17] = biological target: RAC-gamma serine/threonine-protein kinase (Homo sapiens, UniProt Q9Y243); test: Selectivity interaction (NanoBRET assay (HEK293T cells)) EUB0001563a AKT3; type: cell-based; details: hek-293t
[18] = biological target: Calcium/calmodulin-dependent protein kinase type IV (Homo sapiens, UniProt Q16566); test: Selectivity interaction (KinomeScan (DiscoverX, competition-binding assay)) EUB0001547a CAMK4
[19] = biological target: Cyclin-dependent kinase 7 (Homo sapiens, UniProt P50613); test: Selectivity interaction (KinomeScan (DiscoverX, competition-binding assay)) EUB0001547a CDK7
[20] = biological target: Death-associated protein kinase 1 (Homo sapiens, UniProt P53355); test: Selectivity interaction (KinomeScan (DiscoverX, competition-binding assay)) EUB0001547a DAPK1
[21] = biological target: Homeodomain-interacting protein kinase 3 (Homo sapiens, UniProt Q9H422); test: Selectivity interaction (KinomeScan (DiscoverX, competition-binding assay)) EUB0001547a HIPK3
[22] = biological target: Mitogen-activated protein kinase 15 (Homo sapiens, UniProt Q8TD08); test: Selectivity interaction (KinomeScan (DiscoverX, competition binding assay)) EUB0001547a MAPK15
[23] = biological target: Serine/threonine-protein kinase 17B (Homo sapiens, UniProt O94768); test: Selectivity interaction (KinomeScan (competition-binding assay, DiscoverX)) EUB0001547a STK17B
Activin receptor type-1B = Activin receptor type-1B (Homo sapiens, UniProt P36896); test: Selectivity interaction (NanoBRET assay (HEK293T cells)) EUB0001465a ACVR1B; type: cell-based, HEK-293T
[24] = biological target: Bone morphogenetic protein receptor type-1A (Homo sapiens, UniProt P36894); test: Selectivity interaction (NanoBRET assay (HEK293T cells)) EUB0001465a BMPR1A; type: cell-based, HEK-293T
[25] = biological target: Bone morphogenetic protein receptor type-1B (Homo sapiens, UniProt O00238); test: Selectivity interaction (NanoBRET assay (HEK293T cells)) EUB0001465a BMPR1B; type: cell-based, HEK-293T
TGF-beta receptor type-1 = TGF-beta receptor type-1 (Homo sapiens, UniProt P36897); test: Selectivity interaction (NanoBRET assay (HEK293T cells)) EUB0001465a TGFBR1; type: cell-based, HEK-293T
Adenosine receptor A2a = Adenosine receptor A2a (Homo sapiens, UniProt P29274); test: Selectivity interaction (Eurofins-Panlabs Screen) EUB0001548a ADORA2A; details: at 10 µM
[26] = biological target: T6, Mitotic checkpoint serine/threonine-protein kinase BUB1; test: Selectivity interaction (TR-FRET kinase assay ) EUB0001548a BUB1
[27] = biological target: T6, Mitotic checkpoint serine/threonine-protein kinase BUB1; test: Selectivity interaction (KinomeScan (DiscoverX, competition binding assay)) EUB0001548a BUB1
[28] = biological target: T7, Dual specificity tyrosine-phosphorylation-regulated kinase 1B (Homo sapiens, UniProt Q9Y463); test: Selectivity interaction (KinomeScan (DiscoverX)) EUB0001548a DYRK1B; details: at 1 µM
[29] = biological target: T7, Dual specificity tyrosine-phosphorylation-regulated kinase 1B; test: Selectivity interaction (Kinome Scan (DiscoverX, competition binding assay)) EUB0001548a DYRK1B
[30] = biological target: T4, Gamma-aminobutyric acid receptor subunit alpha-1 (Homo sapiens); test: Selectivity interaction (Eurofins-Panlabs Screen) EUB0001548a GABRA1; details: at 10 µM
[31] = biological target: Sodium/nucleoside cotransporter 1 (Homo sapiens) (UniProt O00337); test: Selectivity interaction (Eurofins-Panlabs Screen) EUB0001548a SLC28A1; details: at 10 µM
[32] = biological target: Sodium/nucleoside cotransporter 1 (Homo sapiens, UniProt O00337); test: Selectivity interaction (Eurofins-Panlabs Screen (enzymatic assay)) EUB0001548a SLC28A1
[33] = biological target: 3',5'-cyclic-AMP phosphodiesterase 4A (Homo sapiens, UniProt P27815); test: Selectivity interaction (Eurofins-Panlabs Screen) EUB0001548a PDE4A; details: at 10 µM
[34] = biological target: Prostaglandin G/H synthase 1 (Homo sapiens) (UniProt P23219); test: Selectivity interaction (Eurofins-Panlabs Screen) EUB0001548a PTGS1; details: at 10 µM
[35] = biological target: Sodium channel protein type 2 subunit alpha (Homo sapiens) (UniProt Q99250); test: Selectivity interaction (Eurofins-Panlabs Screen) EUB0001548a SCN2A; details: at 10 µM
[36] = biological target: Serine/threonine-protein kinase 10 (Homo sapiens) (UniProt O94804); test: Selectivity interaction (KinomeScan (DiscoverX)) EUB0001548a STK10; details: at 1 µM

T6 sequence (O43683 whole entry): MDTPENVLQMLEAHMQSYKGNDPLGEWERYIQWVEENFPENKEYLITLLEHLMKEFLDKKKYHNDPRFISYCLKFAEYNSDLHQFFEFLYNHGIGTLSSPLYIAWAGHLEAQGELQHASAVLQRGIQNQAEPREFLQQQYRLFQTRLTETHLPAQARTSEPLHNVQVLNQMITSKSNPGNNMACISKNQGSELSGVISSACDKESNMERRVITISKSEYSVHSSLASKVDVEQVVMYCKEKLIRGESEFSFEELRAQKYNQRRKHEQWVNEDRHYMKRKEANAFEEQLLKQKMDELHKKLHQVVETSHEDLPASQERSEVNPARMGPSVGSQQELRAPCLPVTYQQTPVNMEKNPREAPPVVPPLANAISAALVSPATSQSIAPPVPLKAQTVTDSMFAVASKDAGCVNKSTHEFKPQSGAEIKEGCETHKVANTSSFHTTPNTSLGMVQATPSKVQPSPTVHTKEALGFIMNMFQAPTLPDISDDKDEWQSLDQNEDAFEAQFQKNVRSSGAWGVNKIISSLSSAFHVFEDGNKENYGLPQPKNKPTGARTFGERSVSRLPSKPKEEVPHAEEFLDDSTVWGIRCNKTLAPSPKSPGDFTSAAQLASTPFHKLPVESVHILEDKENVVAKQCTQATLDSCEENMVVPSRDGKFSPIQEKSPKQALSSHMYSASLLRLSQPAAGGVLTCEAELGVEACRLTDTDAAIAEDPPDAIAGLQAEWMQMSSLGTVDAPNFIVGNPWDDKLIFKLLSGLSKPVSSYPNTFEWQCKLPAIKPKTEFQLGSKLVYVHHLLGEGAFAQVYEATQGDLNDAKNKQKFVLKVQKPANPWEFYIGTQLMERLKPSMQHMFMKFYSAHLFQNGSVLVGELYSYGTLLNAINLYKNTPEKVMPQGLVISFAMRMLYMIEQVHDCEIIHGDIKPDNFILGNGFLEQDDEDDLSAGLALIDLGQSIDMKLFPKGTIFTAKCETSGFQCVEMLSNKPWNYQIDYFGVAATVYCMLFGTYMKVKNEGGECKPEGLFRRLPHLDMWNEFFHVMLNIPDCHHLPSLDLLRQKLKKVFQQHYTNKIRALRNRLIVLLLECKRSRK
T3 sequence (P80404 whole entry): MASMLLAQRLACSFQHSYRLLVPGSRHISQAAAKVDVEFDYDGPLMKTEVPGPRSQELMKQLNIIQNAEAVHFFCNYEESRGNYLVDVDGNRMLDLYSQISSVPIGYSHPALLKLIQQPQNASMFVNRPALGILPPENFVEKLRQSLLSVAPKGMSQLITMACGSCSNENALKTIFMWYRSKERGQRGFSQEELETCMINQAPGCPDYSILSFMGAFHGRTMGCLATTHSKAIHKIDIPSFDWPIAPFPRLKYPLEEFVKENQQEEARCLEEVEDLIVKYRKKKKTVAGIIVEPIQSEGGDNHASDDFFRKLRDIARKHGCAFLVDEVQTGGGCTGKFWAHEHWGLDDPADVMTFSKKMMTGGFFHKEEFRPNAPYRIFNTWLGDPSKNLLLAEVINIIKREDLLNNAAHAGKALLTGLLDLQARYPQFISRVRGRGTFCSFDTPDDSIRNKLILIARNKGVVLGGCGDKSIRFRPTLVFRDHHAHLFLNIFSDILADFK
Adenosine receptor A2a, sequence (P29274 whole entry): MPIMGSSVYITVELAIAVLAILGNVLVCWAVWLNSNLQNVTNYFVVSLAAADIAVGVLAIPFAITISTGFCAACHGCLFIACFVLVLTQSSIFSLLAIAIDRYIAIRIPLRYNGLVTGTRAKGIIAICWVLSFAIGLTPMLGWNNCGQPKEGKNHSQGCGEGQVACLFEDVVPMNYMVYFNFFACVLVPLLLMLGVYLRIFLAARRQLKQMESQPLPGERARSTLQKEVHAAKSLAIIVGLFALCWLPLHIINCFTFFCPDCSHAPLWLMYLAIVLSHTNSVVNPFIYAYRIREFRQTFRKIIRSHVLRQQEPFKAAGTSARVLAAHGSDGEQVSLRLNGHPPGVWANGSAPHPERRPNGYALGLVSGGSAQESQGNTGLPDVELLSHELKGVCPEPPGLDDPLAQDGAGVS
Calcium/calmodulin-dependent protein kinase type IV, sequence (Q16566 whole entry): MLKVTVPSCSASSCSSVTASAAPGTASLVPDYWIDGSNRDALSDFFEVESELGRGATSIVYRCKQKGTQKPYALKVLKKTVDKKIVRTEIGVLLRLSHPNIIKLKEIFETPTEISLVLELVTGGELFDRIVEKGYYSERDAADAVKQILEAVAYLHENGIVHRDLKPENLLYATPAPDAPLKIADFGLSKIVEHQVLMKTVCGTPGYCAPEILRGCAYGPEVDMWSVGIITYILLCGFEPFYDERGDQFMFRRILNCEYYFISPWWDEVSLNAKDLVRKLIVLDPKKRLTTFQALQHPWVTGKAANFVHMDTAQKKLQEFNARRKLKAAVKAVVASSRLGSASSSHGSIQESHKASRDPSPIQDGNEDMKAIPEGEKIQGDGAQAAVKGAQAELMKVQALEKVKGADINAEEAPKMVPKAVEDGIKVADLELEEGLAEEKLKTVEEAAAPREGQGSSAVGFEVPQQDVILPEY
Bone morphogenetic protein receptor type-1B, sequence (O00238 whole entry): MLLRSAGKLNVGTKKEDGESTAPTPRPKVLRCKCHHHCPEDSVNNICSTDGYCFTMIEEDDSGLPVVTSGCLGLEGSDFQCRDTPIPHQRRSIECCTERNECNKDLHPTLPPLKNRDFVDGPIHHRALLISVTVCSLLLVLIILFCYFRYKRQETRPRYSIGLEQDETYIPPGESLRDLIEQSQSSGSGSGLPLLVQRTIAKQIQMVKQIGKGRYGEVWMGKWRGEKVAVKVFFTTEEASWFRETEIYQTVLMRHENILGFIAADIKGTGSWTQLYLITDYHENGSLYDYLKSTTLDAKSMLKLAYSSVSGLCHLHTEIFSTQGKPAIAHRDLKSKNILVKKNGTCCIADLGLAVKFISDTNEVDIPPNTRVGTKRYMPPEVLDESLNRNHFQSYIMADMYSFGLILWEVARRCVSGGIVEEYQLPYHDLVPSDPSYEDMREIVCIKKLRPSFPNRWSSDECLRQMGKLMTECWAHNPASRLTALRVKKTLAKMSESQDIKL
5-hydroxytryptamine receptor 1D (Homo sapiens), sequence (P28221 whole entry): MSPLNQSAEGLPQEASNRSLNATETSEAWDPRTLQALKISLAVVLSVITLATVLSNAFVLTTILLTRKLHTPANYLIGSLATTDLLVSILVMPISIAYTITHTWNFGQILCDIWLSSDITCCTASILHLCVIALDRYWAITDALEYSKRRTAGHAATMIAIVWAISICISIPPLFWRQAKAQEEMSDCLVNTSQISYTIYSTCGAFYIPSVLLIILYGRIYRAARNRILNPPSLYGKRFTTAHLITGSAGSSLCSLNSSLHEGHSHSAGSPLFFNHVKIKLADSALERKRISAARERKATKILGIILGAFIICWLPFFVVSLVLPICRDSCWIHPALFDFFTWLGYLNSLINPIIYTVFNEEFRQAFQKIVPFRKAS
Cyclin-G-associated kinase, sequence (O14976 whole entry): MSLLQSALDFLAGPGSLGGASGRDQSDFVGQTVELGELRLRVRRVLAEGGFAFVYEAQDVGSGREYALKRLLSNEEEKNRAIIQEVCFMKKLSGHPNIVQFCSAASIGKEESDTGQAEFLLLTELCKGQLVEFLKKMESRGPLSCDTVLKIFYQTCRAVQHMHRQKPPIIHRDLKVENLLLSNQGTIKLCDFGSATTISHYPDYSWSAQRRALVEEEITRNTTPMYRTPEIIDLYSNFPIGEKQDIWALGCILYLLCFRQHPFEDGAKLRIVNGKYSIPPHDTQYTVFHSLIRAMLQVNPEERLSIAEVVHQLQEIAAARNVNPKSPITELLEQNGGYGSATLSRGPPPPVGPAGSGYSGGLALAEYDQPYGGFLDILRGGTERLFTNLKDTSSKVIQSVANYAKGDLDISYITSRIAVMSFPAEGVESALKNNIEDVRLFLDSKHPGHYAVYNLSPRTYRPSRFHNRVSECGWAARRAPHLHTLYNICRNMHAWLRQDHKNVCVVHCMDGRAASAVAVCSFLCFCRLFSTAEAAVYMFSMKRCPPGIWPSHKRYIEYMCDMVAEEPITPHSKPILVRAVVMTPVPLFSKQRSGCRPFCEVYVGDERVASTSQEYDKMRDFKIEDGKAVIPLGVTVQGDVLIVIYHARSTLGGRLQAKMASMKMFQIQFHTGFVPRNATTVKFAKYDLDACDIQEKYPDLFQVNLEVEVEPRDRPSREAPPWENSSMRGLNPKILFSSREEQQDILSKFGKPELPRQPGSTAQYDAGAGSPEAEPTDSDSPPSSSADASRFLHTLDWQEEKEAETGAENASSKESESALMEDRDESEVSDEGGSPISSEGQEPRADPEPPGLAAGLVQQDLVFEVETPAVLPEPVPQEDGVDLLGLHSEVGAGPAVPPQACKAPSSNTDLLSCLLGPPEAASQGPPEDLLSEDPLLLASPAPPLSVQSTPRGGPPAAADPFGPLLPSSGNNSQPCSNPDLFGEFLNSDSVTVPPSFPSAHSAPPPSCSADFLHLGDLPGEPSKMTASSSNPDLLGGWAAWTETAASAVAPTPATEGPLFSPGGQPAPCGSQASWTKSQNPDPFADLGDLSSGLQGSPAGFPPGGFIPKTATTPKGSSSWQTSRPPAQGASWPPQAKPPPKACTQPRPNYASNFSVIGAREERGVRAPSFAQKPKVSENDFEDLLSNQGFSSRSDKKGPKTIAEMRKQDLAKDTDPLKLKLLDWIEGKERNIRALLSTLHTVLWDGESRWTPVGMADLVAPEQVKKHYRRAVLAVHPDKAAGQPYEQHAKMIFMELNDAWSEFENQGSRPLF
Serine/threonine-protein kinase 17B, sequence (O94768 whole entry): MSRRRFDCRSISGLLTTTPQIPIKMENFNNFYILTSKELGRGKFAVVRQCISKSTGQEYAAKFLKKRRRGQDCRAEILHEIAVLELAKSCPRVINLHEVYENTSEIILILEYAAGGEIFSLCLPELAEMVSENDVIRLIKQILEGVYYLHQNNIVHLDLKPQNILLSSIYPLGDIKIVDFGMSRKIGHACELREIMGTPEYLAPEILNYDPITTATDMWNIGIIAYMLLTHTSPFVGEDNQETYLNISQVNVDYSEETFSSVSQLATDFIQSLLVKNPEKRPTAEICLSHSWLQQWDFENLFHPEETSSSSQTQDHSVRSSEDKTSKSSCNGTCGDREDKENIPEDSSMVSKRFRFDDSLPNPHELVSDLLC

IC50 [1]: 188 nM
% of inhibition [2]: 18.9%
% of inhibition [3]: 36.7%
% of inhibition [4]: 13.7%
% of inhibition [5]: 18%
% of inhibition [6]: 21.1%
% of inhibition (D(1A) dopamine receptor): 25.7%
% of inhibition (D(2) dopamine receptor): 69.8%
% of inhibition (D(3) dopamine receptor): 51.5%
% of inhibition [7]: 44.6%
Ki [8]: 2620 nM
% of inhibition [9]: 51.8%
% of inhibition [10]: 34.5%
IC50 [11]: 272 nM
% of inhibition [12]: 14.4%
% of inhibition [13]: 26.9%
% of inhibition [14]: 13.7%
IC50 [15]: > 20000 nM
SMILES: CCC(F)(F)c1cc(N2CCC(S(C)(=O)=O)CC2)nc2sc(C(N)=O)c(N)c12 [BI-605906]

IC50 [16]: > 20000 nM
SMILES: COc1ccccc1Nc1nc(-c2nn(Cc3c(F)cc(OCCCO)cc3F)c3ccccc23)ncc1OC

SMILES: C=CC(=O)Nc1ccc2[nH]c(=O)n(C3CCN(Cc4ccc(-c5ccc6c(c5)NC(=O)CO6)cc4)CC3)c2c1 [RL2578]
IC50 [17]: 18000 nM

Kd [18]: 360 nM
Kd [19]: 38 nM
Kd [21]: 480 nM
Kd [23]: 930 nM
SMILES: N[C@@H]1CCCN(c2c(/C=C3\SC(=O)NC3=O)cccc2-c2ccccc2)C1
Kd [20]: 420 nM
Kd [22]: 5 nM

IC50 (Activin receptor type-1B): > 10 nM
IC50 [24]: > 10 nM
IC50 [25]: > 10 nM
IC50 (TGF-beta receptor type-1): > 10 nM
SMILES: COc1cc(-c2cncc(-c3ccc(N4CCN(C(C)C)CC4)cc3)c2C)cc(F)c1C(=O)N1CCCC1

% of inhibition (Adenosine receptor A2a): 67%
IC50 [26]: 4.3 nM
IC50 [27]: 3.3 nM
% of control [28]: 6.7%
Kd [29]: > 30000 nM
% of inhibition [30]: 60%
% of inhibition [31]: 71%
IC50 [32]: 370 nM
% of inhibition [33]: 52%
% of inhibition [34]: 54%
% of inhibition [35]: 53%
% of control [36]: 0.6%
SMILES: COc1cnccc1Nc1nc(-c2nn(Cc3c(F)cc(OCCO)cc3F)c3ccccc23)ncc1OC
